Active and inactive are the calls of the source. No cut-off for these calls is given here.
Assays:
[1] = biological target: cGMP-dependent 3',5'-cyclic phosphodiesterase (Homo sapiens) (UniProt O00408); assay: Inhibition of human PDE2A1 at 10 uM by Eurofins kinase assay relative to control
[2] = biological target: PDE4B1 (Homo sapiens, UniProt Q07343); assay: Inhibition of recombinant human PDE4B1 extracted from Sf9 cells using [3H]cAMP as substrate at 10 uM by Eurofins kinase assay relative to control; type: toxicity, cell-free; details: probe [3H]cAMP
[3] = biological target: Dual 3',5'-cyclic-AMP and -GMP phosphodiesterase 11A (Homo sapiens) (UniProt Q9HCR9); assay: Inhibition of human PDE11A at 10 uM by Eurofins kinase assay relative to control
[4] = biological target: cGMP-inhibited 3',5'-cyclic phosphodiesterase 3A (Homo sapiens) (UniProt Q14432); assay: Inhibition of human PDE3A at 10 uM by Eurofins kinase assay relative to control
[5] = biological target: cGMP-inhibited 3',5'-cyclic phosphodiesterase 3B (Homo sapiens) (UniProt Q13370); assay: Inhibition of human PDE3B at 10 uM by Eurofins kinase assay relative to control
[6] = biological target: Voltage-gated inwardly rectifying potassium channel KCNH2 (Homo sapiens, UniProt Q12809); assay: Inhibition of human ERG by Eurofins kinase assay; type: toxicity
[7] = biological target: Cytochrome P450 2C19 (Homo sapiens, UniProt P33261); assay: Inhibition of recombinant human CYP2C19 by Eurofins assay; type: ADME
Cytochrome P450 2C19, sequence (P33261 whole entry): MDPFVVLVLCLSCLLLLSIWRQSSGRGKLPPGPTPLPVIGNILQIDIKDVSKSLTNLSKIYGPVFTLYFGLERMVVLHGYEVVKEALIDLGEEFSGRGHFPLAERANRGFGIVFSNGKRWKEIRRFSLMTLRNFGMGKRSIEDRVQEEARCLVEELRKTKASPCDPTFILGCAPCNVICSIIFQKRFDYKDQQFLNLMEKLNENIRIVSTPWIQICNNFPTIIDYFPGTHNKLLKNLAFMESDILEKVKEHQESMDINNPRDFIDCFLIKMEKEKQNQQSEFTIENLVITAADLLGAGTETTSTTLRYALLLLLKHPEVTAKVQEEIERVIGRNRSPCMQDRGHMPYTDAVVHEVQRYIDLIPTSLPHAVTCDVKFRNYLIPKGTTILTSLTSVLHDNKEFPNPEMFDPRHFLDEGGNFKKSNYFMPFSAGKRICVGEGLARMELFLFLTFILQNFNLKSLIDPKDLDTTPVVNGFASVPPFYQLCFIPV

[8] = biological target: Cytochrome P450 2D6 (Homo sapiens, UniProt P10635); assay: Inhibition of recombinant human CYP2D6 by Eurofins assay; type: ADME
[9] = tested on: Cryptosporidium parvum; assay: Antiparasitic activity against Cryptosporidium parvum Iowa oocyst infected in NOD SCID gamma mouse model assessed as reduction in parasite fecal shedding at 50 mg/kg, po administered twice daily for 7 days starting from day 7 post infection and measured on day 21 by qPCR analysis; type: functional, organism-based; details: time 14.0 day
[10] = biological target: T1, 3',5'-cyclic-AMP phosphodiesterase 4D (Homo sapiens, UniProt Q08499); assay: Inhibition of human PDE4D2 at 10 uM by Eurofins kinase assay relative to control
T1 sequence (Q08499 whole entry): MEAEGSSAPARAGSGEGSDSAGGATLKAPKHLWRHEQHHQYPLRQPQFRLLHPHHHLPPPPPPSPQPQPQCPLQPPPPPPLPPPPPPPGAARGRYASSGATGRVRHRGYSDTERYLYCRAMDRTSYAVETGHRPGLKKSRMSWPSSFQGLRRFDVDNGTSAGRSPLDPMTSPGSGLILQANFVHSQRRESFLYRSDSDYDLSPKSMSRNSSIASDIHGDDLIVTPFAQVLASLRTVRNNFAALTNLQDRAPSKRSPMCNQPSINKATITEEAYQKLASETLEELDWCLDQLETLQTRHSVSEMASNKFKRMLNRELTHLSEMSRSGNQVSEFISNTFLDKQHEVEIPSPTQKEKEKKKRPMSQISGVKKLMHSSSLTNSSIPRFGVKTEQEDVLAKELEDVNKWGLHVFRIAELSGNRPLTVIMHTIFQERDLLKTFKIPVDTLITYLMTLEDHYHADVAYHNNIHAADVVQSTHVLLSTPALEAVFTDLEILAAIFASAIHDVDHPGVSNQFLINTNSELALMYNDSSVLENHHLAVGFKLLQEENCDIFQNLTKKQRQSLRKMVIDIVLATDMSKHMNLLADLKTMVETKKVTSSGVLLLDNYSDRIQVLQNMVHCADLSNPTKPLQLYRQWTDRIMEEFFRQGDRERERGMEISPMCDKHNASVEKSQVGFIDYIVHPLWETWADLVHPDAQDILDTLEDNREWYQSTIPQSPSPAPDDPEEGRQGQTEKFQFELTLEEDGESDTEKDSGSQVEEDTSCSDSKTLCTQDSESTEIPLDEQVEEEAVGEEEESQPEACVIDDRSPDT

[11] = organism: Homo sapiens; assay: Inhibition of human PDE6 at 10 uM by Eurofins kinase assay relative to control
[12] = biological target: cAMP and cAMP-inhibited cGMP 3',5'-cyclic phosphodiesterase 10A (Homo sapiens) (UniProt Q9Y233); assay: Inhibition of human PDE10A2 at 10 uM by Eurofins kinase assay relative to control
cAMP and cAMP-inhibited cGMP 3',5'-cyclic phosphodiesterase 10A (Homo sapiens), sequence (Q9Y233 whole entry): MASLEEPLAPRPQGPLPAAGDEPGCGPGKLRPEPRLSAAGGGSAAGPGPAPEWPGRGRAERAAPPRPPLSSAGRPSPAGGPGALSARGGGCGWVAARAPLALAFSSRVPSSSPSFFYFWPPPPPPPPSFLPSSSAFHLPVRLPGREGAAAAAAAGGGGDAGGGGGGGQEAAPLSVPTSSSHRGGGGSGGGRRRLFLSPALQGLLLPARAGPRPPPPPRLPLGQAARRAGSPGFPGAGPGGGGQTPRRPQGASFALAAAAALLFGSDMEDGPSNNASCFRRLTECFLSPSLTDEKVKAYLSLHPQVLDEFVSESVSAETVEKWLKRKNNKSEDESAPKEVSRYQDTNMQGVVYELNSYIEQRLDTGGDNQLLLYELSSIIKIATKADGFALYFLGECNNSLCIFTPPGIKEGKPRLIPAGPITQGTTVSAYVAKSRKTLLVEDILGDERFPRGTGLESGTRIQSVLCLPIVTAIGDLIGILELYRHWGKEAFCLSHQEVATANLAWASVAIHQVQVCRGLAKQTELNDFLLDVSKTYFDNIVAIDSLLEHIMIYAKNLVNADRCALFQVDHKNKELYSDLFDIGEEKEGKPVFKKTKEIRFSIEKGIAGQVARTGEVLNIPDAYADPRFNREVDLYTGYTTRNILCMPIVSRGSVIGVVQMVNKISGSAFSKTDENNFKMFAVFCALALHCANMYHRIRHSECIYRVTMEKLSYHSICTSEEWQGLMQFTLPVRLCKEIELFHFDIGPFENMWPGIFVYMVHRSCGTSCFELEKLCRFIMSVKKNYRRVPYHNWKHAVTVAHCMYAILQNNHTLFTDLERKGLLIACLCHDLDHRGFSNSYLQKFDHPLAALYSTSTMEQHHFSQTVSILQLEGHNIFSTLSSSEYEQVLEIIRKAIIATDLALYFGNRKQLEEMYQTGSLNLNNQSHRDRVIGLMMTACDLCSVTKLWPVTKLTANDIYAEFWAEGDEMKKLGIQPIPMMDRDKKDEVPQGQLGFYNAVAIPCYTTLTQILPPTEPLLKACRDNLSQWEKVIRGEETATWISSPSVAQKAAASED

[13] = biological target: High affinity 3',5'-cyclic-AMP phosphodiesterase 7A (Homo sapiens) (UniProt Q13946); assay: Inhibition of human PDE7A1 at 10 uM by Eurofins kinase assay relative to control
High affinity 3',5'-cyclic-AMP phosphodiesterase 7A (Homo sapiens), sequence (Q13946 whole entry): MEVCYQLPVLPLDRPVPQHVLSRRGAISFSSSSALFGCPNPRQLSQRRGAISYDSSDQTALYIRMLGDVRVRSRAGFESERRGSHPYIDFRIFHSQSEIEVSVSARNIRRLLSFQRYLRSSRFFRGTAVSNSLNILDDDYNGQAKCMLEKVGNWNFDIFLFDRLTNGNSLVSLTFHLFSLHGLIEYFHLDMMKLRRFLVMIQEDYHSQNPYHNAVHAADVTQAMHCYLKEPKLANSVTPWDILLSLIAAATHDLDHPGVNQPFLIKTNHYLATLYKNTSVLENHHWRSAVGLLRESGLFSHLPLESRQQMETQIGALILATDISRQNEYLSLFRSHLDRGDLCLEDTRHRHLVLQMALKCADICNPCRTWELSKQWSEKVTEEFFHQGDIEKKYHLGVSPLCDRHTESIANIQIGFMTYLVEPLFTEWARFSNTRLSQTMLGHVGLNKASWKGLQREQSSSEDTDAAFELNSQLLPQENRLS

[14] = biological target: Cytochrome P450 2C8 (Homo sapiens, UniProt P10632); assay: Inhibition of recombinant human CYP2C8 by Eurofins assay; type: ADME
Cytochrome P450 2C8, sequence (P10632 whole entry): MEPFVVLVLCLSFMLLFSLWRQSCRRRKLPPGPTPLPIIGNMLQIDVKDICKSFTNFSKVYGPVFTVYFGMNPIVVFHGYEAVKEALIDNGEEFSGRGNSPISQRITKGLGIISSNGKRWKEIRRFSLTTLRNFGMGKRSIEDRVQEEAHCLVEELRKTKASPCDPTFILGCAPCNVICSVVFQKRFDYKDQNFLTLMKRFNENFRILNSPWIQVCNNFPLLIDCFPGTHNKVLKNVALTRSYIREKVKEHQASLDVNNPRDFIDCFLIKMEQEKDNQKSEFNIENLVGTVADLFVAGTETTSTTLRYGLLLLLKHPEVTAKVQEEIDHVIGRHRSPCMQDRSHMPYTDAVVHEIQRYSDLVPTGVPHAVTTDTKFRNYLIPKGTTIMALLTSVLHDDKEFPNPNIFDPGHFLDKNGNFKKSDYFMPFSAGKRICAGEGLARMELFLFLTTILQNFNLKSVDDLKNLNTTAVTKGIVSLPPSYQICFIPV

[15] = organism: Homo sapiens; assay: Inhibition of human PDE4A1A at 10 uM by Eurofins kinase assay relative to control
[16] = biological target: High affinity cAMP-specific and IBMX-insensitive 3',5'-cyclic phosphodiesterase 8A (Homo sapiens) (UniProt O60658); assay: Inhibition of human PDE8A1 at 10 uM by Eurofins kinase assay relative to control
High affinity cAMP-specific and IBMX-insensitive 3',5'-cyclic phosphodiesterase 8A (Homo sapiens), sequence (O60658 whole entry): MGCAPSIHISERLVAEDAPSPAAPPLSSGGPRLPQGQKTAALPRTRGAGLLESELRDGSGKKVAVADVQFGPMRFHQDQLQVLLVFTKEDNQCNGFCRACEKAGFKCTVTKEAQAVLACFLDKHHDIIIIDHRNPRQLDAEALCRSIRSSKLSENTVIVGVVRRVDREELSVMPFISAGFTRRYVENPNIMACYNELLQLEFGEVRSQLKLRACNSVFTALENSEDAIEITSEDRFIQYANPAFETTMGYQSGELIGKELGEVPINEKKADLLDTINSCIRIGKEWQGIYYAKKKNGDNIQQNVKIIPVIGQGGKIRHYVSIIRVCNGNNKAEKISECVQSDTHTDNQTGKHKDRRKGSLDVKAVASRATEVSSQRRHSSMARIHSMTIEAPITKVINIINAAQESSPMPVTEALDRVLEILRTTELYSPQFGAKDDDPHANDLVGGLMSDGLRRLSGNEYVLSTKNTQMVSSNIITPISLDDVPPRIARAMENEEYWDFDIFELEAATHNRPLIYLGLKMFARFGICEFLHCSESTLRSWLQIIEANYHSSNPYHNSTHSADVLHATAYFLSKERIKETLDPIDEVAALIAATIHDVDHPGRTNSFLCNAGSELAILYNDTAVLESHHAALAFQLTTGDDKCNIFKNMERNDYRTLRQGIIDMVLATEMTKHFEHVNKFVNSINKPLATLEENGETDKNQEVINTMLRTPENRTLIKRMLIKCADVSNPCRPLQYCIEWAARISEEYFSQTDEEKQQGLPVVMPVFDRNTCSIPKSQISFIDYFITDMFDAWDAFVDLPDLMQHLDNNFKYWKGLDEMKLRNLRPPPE

[17] = organism: Homo sapiens; assay: Inhibition of human PDE1B at 10 uM by Eurofins kinase assay relative to control
[18] = biological target: PDE11A (Homo sapiens, UniProt Q9HCR9); assay: Inhibition of recombinant human PDE11A extracted from Sf9 cells using [3H]cAMP as substrate at 10 uM by Eurofins kinase assay relative to control; type: toxicity, cell-free; details: probe [3H]cAMP
[19] = Cytotoxicity against human HCT-8 cells assessed as inhibition of cell proliferation incubated for 48 hrs by Celltiter aqueous assay; type: toxicity, cell-based; details: read-out: TC50
[20] = Aqueous solubility of compound at pH 7.4; type: physicochemical
[21] = biological target: Cytochrome P450 3A4 (Homo sapiens, UniProt P08684); assay: Inhibition of recombinant human CYP3A4 by Eurofins assay; type: ADME
Cytochrome P450 3A4, sequence (P08684 whole entry): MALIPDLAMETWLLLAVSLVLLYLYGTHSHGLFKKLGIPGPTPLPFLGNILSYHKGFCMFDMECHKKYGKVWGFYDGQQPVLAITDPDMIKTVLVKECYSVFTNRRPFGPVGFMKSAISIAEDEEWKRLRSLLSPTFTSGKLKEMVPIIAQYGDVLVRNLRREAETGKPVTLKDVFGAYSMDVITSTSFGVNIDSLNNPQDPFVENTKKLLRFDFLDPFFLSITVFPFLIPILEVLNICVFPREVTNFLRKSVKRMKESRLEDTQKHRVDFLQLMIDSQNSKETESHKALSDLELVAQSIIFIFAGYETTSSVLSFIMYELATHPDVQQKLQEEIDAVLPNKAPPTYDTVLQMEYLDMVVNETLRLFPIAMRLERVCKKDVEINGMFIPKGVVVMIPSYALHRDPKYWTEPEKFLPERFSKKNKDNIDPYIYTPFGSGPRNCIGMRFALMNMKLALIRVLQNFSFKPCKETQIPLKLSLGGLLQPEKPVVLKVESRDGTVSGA

[22] = biological target: Cytochrome P450 2B6 (Homo sapiens, UniProt P20813); assay: Inhibition of recombinant human CYP2B6 by Eurofins assay; type: ADME
[23] = biological target: PDE5 (Homo sapiens, UniProt O76074); assay: Inhibition of human platelet PDE5 using [3H]cGMP as substrate at 10 uM by Eurofins kinase assay relative to control; type: toxicity; details: human platelet PDE5, probe [3H]cGMP
[24] = tested on: PDE6; assay: Inhibition of bovine retina PDE6 using [3H]cGMP as substrate at 10 uM by Eurofins kinase assay relative to control; type: toxicity, Bos taurus; details: cattle, bovine retina PDE6, probe [3H]cGMP
[25] = biological target: cGMP-specific 3',5'-cyclic phosphodiesterase (Homo sapiens) (UniProt O76074); assay: Inhibition of human PDE5 at 10 uM by Eurofins kinase assay relative to control
[26] = tested on: HCT-8; assay: Cytotoxicity against human HCT-8 cells assessed as reduction in cell numbers upto 50 uM incubated for 48 hrs by high-density microscopic celltiter aqueous assay; type: toxicity, cell-based; details: hct-8, 48 h
[27] = biological target: T1, 3',5'-cyclic-AMP phosphodiesterase 4D; assay: Inhibition of human PDE4D2 by Eurofins kinase assay; type: toxicity
[28] = biological target: 3',5'-cyclic-AMP phosphodiesterase 4B (Homo sapiens) (UniProt Q07343); assay: Inhibition of human PDE4B1 at 10 uM by Eurofins kinase assay relative to control
[29] = biological target: Cytochrome P450 1A2 (Homo sapiens, UniProt P05177); assay: Inhibition of recombinant human CYP1A2 by Eurofins assay; type: ADME

- inhibition [1]: 36%
- inhibition [3]: 55%
- inhibition [4]: 27%
- inhibition [5]: 2%
- IC50 [7]: > 10 µM
- IC50 [8]: > 10 µM
- inhibition [10]: 42%
- inhibition [11]: 79%
- inhibition [12]: 37%
- inhibition [13]: 22%
- IC50 [14]: > 10 µM
- inhibition [15]: 31%
- inhibition [16]: 30%
- inhibition [17]: 18%
- solubility [20]: > 200 µM
- IC50 [21]: > 10 µM
- IC50 [22]: > 10 µM
- inhibition [25]: 93%
- inhibition [28]: 54%
- IC50 [29]: > 10 µM
Structure (SMILES): CCc1nn(C)c2nc(-c3ccc(C(=O)O)cc3)nc(NCc3ccc(F)cc3)c12
- inhibition at 10 µM [2]: > 50%
- IC50 [6]: > 10 µM
- Activity [9]: Active
- inhibition at 10 µM [18]: > 50%
- CC50 at 48 h [19]: > 100 µM
- inhibition at 10 µM [23]: > 50%
- inhibition at 10 µM [24]: > 50%
- Activity [26]: Non-toxic
- IC50 [27]: 8.2 µM

— ChEMBL document CHEMBL6087459 (J Med Chem, 2025)
